In US20150320773A1, “TREATMENT OF INFLAMMATION” (Vascular Biogenics Ltd., priority 2011, published 2015):

What was measured:
[1] = tested on: C57B6J WT mice; test: Thioglycollate-induced peritonitis model (monocyte migration in vivo); design: species or system mouse; settings: oral
Method: After 5 days of administration, thioglycollate was injected to the peritoneal cavity of the mice to induce monocyte migration. Four days later, mice were sacrificed and migrating cells were collected from the peritoneum and counted by hemocytometer. Data are mean±SE, collected from 3-4 independent experiments. […] FIG. 26B is a FACS analysis. To characterize their identity, migrating cells were stained with the macrophage marker F4/80 and the neutrophils marker GR-1.
In this model, injection of thioglycollate to the peritoneal cavity induces a “sterile” inflammatory response recruiting peripheral monocytes to the peritoneum, where they differentiate into macrophages (Li, Y. M., et al., J. Immunol. Methods. 1997; 201:183-188). […] Upon sacrifice, the number and identity of the cells accumulating in the peritoneum was determined by FACS, and plasma samples were taken for quantification by Liquid Chromatography-Tandem Mass Spectrometry. Three days after thioglycollate injection 95% of the cells in the peritoneum were macrophages (F4/80 positive, GR-1 negative cells) (FIG. 26B).

[2] = tested on: human monocytes; test: Cell viability assay (MTS) of human monocytes; type: cell-based; settings: 16 hours, doses of 1-10 j±g/ml
[3] = biological target: IL-1 receptor (IL-1R) (Mus musculus, UniProt P13504); settings: mouse BMDCs; 1.7, 8.5 or 17 μM
[4] = biological target: TLR2:TLR1 dimer, TLR2:TLR6 dimer (Mus musculus, UniProt Q9QUN7); settings: 1.7, 8.5 or 17 μM
[5] = biological target: Lp-PLA2 (Homo sapiens, UniProt Q13093); settings: concentrations of up to 40 μM; data not shown
[6] = biological target: COX-1 (Homo sapiens, UniProt P23219); settings: concentrations of up to 10 μM; data not shown
[7] = biological target: TLR5 (Homo sapiens, UniProt O60602); settings: human monocytes; flagellin; 1.7, 8.5 or 17 μM
[8] = tested on: THP-1 cells; test: Trans-well chemotaxis assay of THP-1 cells; type: cell-based, human
Method: For chemo-attraction of monocytes, RANTES (100 ng/ml), MIP-1α (50 ng/ml) or MCP-1 (50 ng/ml) were dissolved in 0.5% fetal bovine serum(FBS)/RPMI-1640 medium and placed at the lower chamber of QCM™ 24-well migration assay plate (Corning-Costar; 5 μm pores). For chemo-attraction of CD4+ cells, 0.5% FBS/RPMI-1640 solution containing RANTES (100 ng/ml) and SDF-1α (50 ng/ml) was used, using the same plate setting. Migration assay was conducted by seeding 300,000 treated cells in the upper chamber, followed by incubation of 3-4 hours. Subsequently, the number of cells which migrated to the medium in the lower compartment was determined by FACS.
Data are mean f SD from 4 experiments in triplicates, normalized to untreated cells. **, p<0.001.

[9] = tested on: patients; test: Vascular inflammation in patients (statin therapy); type: in vivo, human; settings: in some instances
Method: In some examples according to any one of the embodiments of Methods 1a, 1b, 2, and 3 described herein, the vascular inflammation is measured using positron emission computed tomography (PET/CT) imaging quantifying 18-fluorodeoxyglucose (18-FDG) uptake as a target to background ratio (TBR), e.g., as described herein, or in Example 8 of WO2011/083465.

[10] = tested on: chemokine receptors; test: GPCR activation assay, agonist mode (calcium flux); type: cell-based; settings: 12.5 μM VB-201; ChemiScreen stable cell lines
Method: Analyses were performed by Millipore GPCR Profiler Service, by measuring intracellular calcium signal in real time using FLIPR^TETRA device. […] Antagonist percentage inhibition was referenced to EC80 control wells for each tested GPCR.

Chain of TLR2:TLR1 dimer, TLR2:TLR6 dimer (Q9QUN7 25-784): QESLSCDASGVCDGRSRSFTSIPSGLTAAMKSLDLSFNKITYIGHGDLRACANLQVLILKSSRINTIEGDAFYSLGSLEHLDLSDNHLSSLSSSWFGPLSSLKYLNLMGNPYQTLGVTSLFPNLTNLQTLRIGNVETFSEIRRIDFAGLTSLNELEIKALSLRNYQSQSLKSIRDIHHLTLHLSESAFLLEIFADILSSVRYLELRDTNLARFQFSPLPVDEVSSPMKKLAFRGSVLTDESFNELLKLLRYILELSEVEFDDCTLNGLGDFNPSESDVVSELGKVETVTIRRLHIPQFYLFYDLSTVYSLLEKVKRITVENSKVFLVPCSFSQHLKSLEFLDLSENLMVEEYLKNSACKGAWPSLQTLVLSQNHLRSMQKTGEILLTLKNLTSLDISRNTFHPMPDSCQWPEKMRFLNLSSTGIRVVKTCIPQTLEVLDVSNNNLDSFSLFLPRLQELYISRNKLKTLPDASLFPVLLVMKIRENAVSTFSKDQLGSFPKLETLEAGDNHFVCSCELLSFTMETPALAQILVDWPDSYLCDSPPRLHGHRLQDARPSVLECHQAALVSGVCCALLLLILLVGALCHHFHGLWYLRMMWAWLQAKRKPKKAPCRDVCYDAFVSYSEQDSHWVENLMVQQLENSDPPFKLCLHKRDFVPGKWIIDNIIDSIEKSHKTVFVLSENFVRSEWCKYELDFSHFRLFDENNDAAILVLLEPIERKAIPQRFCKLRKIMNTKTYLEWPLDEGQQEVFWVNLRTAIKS
Chain of COX-1 (P23219 24-599): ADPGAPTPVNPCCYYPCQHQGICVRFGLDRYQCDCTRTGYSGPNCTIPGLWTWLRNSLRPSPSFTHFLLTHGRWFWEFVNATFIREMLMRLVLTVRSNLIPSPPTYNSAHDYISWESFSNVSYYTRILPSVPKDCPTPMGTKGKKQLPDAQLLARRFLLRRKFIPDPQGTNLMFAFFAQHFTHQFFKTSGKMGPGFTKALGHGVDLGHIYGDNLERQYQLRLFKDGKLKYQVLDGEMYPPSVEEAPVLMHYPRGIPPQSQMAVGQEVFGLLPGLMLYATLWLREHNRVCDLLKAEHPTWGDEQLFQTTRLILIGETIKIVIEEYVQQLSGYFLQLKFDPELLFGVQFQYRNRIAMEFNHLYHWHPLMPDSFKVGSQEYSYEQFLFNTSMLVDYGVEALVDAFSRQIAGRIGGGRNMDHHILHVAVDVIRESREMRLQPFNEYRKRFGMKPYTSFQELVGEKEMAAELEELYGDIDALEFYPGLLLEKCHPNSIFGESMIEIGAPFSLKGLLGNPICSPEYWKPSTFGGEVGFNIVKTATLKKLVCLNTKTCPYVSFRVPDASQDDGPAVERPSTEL
Chain of Lp-PLA2 (Q13093 22-441): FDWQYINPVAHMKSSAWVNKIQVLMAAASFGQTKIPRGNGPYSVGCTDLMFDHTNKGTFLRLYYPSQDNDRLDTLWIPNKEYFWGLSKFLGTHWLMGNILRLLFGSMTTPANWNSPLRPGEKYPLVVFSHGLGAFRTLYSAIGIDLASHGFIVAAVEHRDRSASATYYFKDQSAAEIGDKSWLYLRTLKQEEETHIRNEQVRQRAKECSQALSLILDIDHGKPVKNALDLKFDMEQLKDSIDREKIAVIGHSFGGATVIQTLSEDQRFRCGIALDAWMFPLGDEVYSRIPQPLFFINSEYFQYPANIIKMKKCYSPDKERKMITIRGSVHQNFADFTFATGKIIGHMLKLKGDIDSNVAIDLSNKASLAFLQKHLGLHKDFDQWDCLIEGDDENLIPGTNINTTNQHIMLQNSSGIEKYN
Chain of IL-1 receptor (IL-1R) (P13504 20-576): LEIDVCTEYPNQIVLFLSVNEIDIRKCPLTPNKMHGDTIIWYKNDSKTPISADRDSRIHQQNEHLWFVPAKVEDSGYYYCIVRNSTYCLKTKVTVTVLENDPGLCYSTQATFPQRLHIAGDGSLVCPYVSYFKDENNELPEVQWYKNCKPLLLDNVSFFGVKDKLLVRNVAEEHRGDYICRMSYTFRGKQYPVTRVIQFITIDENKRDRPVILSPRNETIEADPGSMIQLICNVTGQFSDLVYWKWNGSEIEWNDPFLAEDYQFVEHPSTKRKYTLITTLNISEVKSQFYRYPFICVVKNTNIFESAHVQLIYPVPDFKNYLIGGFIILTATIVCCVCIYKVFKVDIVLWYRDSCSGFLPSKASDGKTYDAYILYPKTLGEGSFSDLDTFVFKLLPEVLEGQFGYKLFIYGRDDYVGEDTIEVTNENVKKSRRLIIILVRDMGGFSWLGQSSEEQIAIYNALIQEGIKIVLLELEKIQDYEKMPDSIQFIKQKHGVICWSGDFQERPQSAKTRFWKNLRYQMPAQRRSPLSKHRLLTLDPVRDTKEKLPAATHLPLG
Chain of TLR5 (O60602 21-858): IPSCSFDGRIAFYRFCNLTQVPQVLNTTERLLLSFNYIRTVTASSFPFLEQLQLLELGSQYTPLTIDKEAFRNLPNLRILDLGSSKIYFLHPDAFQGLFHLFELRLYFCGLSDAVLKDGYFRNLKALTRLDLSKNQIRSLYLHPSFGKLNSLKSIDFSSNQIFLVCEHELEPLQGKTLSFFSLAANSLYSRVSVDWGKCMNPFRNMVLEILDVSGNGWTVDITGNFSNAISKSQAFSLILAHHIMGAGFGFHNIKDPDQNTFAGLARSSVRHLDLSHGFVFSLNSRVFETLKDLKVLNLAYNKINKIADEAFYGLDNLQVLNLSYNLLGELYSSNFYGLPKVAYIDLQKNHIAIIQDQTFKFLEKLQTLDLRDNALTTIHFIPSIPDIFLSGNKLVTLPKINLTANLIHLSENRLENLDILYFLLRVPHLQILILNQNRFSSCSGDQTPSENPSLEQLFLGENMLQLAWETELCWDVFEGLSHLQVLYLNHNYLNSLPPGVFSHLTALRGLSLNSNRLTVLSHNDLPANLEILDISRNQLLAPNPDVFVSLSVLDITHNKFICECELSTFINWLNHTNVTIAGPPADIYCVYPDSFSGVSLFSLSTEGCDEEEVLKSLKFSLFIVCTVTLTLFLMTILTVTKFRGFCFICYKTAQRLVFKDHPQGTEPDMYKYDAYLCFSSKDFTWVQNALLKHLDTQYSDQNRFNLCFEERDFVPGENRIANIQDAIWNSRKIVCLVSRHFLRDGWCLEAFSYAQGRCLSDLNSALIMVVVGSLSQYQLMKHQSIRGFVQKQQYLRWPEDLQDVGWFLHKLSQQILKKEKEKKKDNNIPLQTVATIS

Compound: CCCCCCCCCCCCCCCCOC[C@H](COP(=O)([O-])OCC[N+](C)(C)C)OCCCCC(=O)O [VB-201, (R)-1-hexadecyl-2-(4′-carboxyl)butyl-sn-glycero-3-phosphocholine]
- inhibition of peritoneal macrophage accumulation ([1]; 0.04 mg/kg/day): no inhibitory effect
- inhibition of peritoneal macrophage accumulation ([1]; 0.4 mg/kg): ~25%
- reduction in the number of peritoneal macrophages relative to PBS-treated animals ([1]; 4 mg/kg): > 60%
- monocyte viability [2]: no effect on monocyte viability
- p38 phosphorylation following activation of IL-1 receptor [3]: no apparent effect
- p38 phosphorylation following activation of dimers of TLR2 ([4]; mouse BMDCs, Pam3CSK4, PGN): inhibited p^38 phosphorylation in a dose-dependent manner
- activation of p38, ERK1/2 and the NFκB pathway following activation of TLR2:TLR1 dimer ([4]; mouse peritoneal macrophages, Pam3CSK4): inhibited activation of p38, ERK1/2 and the NFκB pathway in a dose-dependent manner
- inhibition of Lp-PLA2 [5]: No inhibition
- inhibition of COX-1 [6]: No inhibition
- activation of p38, ERK1/2 and the NFκB pathway following TLR5 activation [7]: no apparent effect
- effect of Wortmannin, Rapamycin and GW5074 on chemotaxis of THP-1 cells with added VB-201 ([8]; VB-201 8.5 μM): further enhanced
- in vitro migration of THP-1 cells ([8]; pretreatment 30 minutes, 2 or 5 μg/ml): significantly inhibited in vitro migration of THP-1 cells in a dose-dependent manner
- effect on vascular inflammation in patients undergoing statin therapy versus patients not being treated with statins [9]: slightly better
- activation relative to positive controls (agonist, Ca++ flux) [10]: less than 5%
